Reference: the supplement of paper PMC11451515

Tests used:
Conditions in all cases: 48 h
NOMO1 [1] = assay: AUC of viability dose-response curve (% viability x log10 dose units); higher = less sensitive
Summary of the method: (§1)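 Medium-adapted leukemia cells in 1536-well plates, at 500 or 1000 cells/well, were incubated for 48 h at 37°C with library compounds in DMSO at 11 threefold doses from 47 μM to 0.79 nM. CellTiter-Glo One luminescence normalised per plate to DMSO and cell-free wells was fitted with a four-parameter log-logistic model over log10 doses. Area under the curve was integrated from this fit by trapezoidal rule, with curves beyond full viability scaled and failed quality-control curves removed.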

SEM cells [2] = assay: as above
Summary of the method: as §1

P12-Ichikawa [3] = assay: as above
Summary of the method: as §1

NOMO1 [4] = assay: cell viability relative to DMSO control; higher = less cytotoxic
Summary of the method: (§2)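 Viability was expressed as a per-plate percentage of DMSO wells, with cell-free wells as background. Leukemia cells (NOMO1 or SEM at 500 cells/well, P12-Ichikawa at 1000 cells/well) were adapted for at least four passages in each medium and seeded in 1536-well plates (5 μl). Library compounds in DMSO were pin-dosed over an 11-point threefold series from 47 μM to 0.79 nM, and CellTiter-Glo One luminescence was read after 48 h at 37°C.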

SEM cells [5] = assay: as above
Summary of the method: as §2

P12-Ichikawa [6] = assay: as above
Summary of the method: as §2

O=c1[nH]c(=O)n([C@H]2C[C@H](O)[C@@H](CO)O2)cc1/C=C/Br
AUC of viability dose-response curve
Conditions | NOMO1 [1] | P12-Ichikawa [3] | SEM cells [2]
HPLM + 10% dialyzed FBS | 425 | 357 | 436
RPMI 5 mM glucose + 10% FBS | 456 | 472 | 460
RPMI 5 mM glucose + 10% dialyzed FBS | 454 | 477 | 469

cell viability [%]
Conditions | NOMO1 [4] | P12-Ichikawa [6] | SEM cells [5]
HPLM + 10% dialyzed FBS, 0.000781 µM | 89.1 | 103 | 92.7
HPLM + 10% dialyzed FBS, 0.00234 µM | 108 | 126 | 116
HPLM + 10% dialyzed FBS, 0.00702 µM | 120 | 105 | 101
HPLM + 10% dialyzed FBS, 0.0211 µM | 108 | 115 | 120
HPLM + 10% dialyzed FBS, 0.0632 µM | 123 | 102 | 119
HPLM + 10% dialyzed FBS, 0.19 µM | 108 | 61.2 | 119
HPLM + 10% dialyzed FBS, 0.569 µM | 96.2 | 60.8 | 114
HPLM + 10% dialyzed FBS, 1.71 µM | 96.5 | 70 | 100
HPLM + 10% dialyzed FBS, 5.12 µM | 79.4 | 75.8 | 86.4
HPLM + 10% dialyzed FBS, 15.4 µM | 72.4 | 61.4 | 78.7
HPLM + 10% dialyzed FBS, 46.1 µM | 55.4 | 47.8 | 60.2
RPMI 5 mM glucose + 10% FBS, 0.000781 µM | 93.9 | 97.6 | 101
RPMI 5 mM glucose + 10% FBS, 0.00234 µM | 111 | 107 | 121
RPMI 5 mM glucose + 10% FBS, 0.00702 µM | 97.7 | 103 | 114
RPMI 5 mM glucose + 10% FBS, 0.0211 µM | 106 | 103 | 109
RPMI 5 mM glucose + 10% FBS, 0.0632 µM | 114 | 105 | 123
RPMI 5 mM glucose + 10% FBS, 0.19 µM | 101 | 110 | 105
RPMI 5 mM glucose + 10% FBS, 0.569 µM | 113 | 108 | 119
RPMI 5 mM glucose + 10% FBS, 1.71 µM | 117 | 106 | 117
RPMI 5 mM glucose + 10% FBS, 5.12 µM | 106 | 107 | 115
RPMI 5 mM glucose + 10% FBS, 15.4 µM | 120 | 110 | 119
RPMI 5 mM glucose + 10% FBS, 46.1 µM | 110 | 106 | 120
RPMI 5 mM glucose + 10% dialyzed FBS, 0.000781 µM | 123 | 92.6 | 90.8
RPMI 5 mM glucose + 10% dialyzed FBS, 0.00234 µM | 110 | 104 | 117
RPMI 5 mM glucose + 10% dialyzed FBS, 0.00702 µM | 102 | 109 | 103
RPMI 5 mM glucose + 10% dialyzed FBS, 0.0211 µM | 122 | 118 | 98.6
RPMI 5 mM glucose + 10% dialyzed FBS, 0.0632 µM | 119 | 112 | 106
RPMI 5 mM glucose + 10% dialyzed FBS, 0.19 µM | 114 | 106 | 112
RPMI 5 mM glucose + 10% dialyzed FBS, 0.569 µM | 107 | 103 | 116
RPMI 5 mM glucose + 10% dialyzed FBS, 1.71 µM | 121 | 108 | 116
RPMI 5 mM glucose + 10% dialyzed FBS, 5.12 µM | 134 | 108 | 111
RPMI 5 mM glucose + 10% dialyzed FBS, 15.4 µM | 130 | 102 | 102
RPMI 5 mM glucose + 10% dialyzed FBS, 46.1 µM | 105 | 100 | 82.2

COC(c1ccccc1)(c1ccccc1)[C@H](Oc1nc(C)cc(C)n1)C(=O)O
AUC of viability dose-response curve
Conditions | NOMO1 [1] | P12-Ichikawa [3] | SEM cells [2]
HPLM + 10% dialyzed FBS | 444 | 464 | 462
RPMI 5 mM glucose + 10% FBS | 452 | 465 | 466
RPMI 5 mM glucose + 10% dialyzed FBS | 467 | 464 | 463

SEM cells [5], RPMI 5 mM glucose + 10% dialyzed FBS
Conditions | cell viability [%]
0.000781 µM | 115
0.00234 µM | 134
0.00702 µM | 122
0.0211 µM | 139
0.0632 µM | 177
0.19 µM | 160
0.569 µM | 167
1.71 µM | 152
5.12 µM | 140
15.4 µM | 133
46.1 µM | 85.1

CCCc1cc(C(N)=S)ccn1
AUC of viability dose-response curve
Conditions | NOMO1 [1] | P12-Ichikawa [3] | SEM cells [2]
HPLM + 10% dialyzed FBS | 470 | 466 | 446
RPMI 5 mM glucose + 10% FBS | 472 | 436 | 469
RPMI 5 mM glucose + 10% dialyzed FBS | 465 | 472 | 475

SEM cells [5], HPLM + 10% dialyzed FBS
Conditions | cell viability [%]
0.000781 µM | 92.5
0.00234 µM | 110
0.00702 µM | 111
0.0211 µM | 113
0.0632 µM | 114
0.19 µM | 117
0.569 µM | 85.6
1.71 µM | 56.3
5.12 µM | 119
15.4 µM | 130
46.1 µM | 133
